Assay results as given in patent US9029388B2, “Condensed heterocyclic compound” (Takeda Pharmaceutical Company Limited, priority 2011, dated 2015).

Assays:
human PDE10A enzyme = target: T1, human PDE10A enzyme (Homo sapiens, UniProt Q9Y233); test: PDE10A enzyme activity inhibition test (Scintillation Proximity Assay, [3H]cGMP substrate); format: biochemical; settings: control without compound = 0%, without compound and enzyme = 100%; for inhibition at 0.1 µM: compound 0.1 μM, read-out: Inhibitory rate (%) (0.1 μM); for inhibition at 10 µM: compound 10 μM, read-out: Inhibitory rate (%) (10 μM)
T1 construct: Human PDE10A full-length gene was transfected into Sf9 or COS-7 cells; His-tag; made in house; host or cells: Sf9 or COS-7 cells
T1 sequence (Q9Y233 267-1055): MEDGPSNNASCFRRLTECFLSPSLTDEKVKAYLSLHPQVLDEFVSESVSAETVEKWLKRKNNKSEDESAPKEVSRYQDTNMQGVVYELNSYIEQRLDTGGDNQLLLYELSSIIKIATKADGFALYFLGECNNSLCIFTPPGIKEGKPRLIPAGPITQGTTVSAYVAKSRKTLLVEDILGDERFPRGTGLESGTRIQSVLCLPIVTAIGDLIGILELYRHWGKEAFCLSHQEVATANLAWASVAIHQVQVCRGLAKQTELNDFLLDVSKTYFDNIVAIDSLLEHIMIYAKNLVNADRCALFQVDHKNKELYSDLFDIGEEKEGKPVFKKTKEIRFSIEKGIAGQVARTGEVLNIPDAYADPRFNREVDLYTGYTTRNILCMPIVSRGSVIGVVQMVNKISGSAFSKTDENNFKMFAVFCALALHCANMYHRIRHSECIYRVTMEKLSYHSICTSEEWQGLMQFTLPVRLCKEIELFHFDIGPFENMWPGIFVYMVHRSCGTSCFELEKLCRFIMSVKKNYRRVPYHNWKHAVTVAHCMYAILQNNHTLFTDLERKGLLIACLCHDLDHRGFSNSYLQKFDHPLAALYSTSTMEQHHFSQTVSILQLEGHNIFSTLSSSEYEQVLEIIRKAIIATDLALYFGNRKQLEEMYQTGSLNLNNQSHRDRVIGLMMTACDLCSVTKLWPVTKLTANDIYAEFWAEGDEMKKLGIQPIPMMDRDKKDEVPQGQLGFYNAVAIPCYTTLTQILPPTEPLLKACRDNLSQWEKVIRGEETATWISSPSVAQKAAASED
Method: Human PDE10A full-length gene was transfected into Sf9 or COS-7 cells. The cells were disrupted and centrifuged, and human PDE10A enzyme was obtained from the residue. The enzyme extracted from Sf9 cells was partially purified using His-tag affinity column. The enzyme was stored at −70° C. until use.
The PDE 10A enzyme activity was measured using an Scintillation Proximity Assay (SPA, GE Healthcare). To measure the inhibitory activity of the test compound, 10 μL of serially diluted test compound was reacted with 20 μL of PDE 10A enzyme in an assay buffer (50 mM HEPES-NaOH, 8.3 mM MgCl2, 1.7 mM EGTA, 0.1% BSA (pH 7.4)) for 30 min at room temperature. The final concentration of DMSO in the reaction mixture was 1%.
The compounds were evaluated in duplicate in 96-well half-area plates (Corning). To start the reaction, 10 μL of substrate [3H] cGMP (25 or 50 nM; GE Healthcare and PerkinElmer, respectively) was added thereto to the total volume of 40 μL. After 60 min of reaction at room temperature, yttrium SPA beads containing zinc sulphate were added (6 mg/mL, 20 μL) to terminate the reaction. After standing still for 1 hr, the measurement was performed using a scintillation counter (PerkinElmer) and the inhibition rate was calculated. As for the inhibitory rate, the value without addition of the compound (control) was 0%, and that without addition of the compound and enzyme was 100%.

[1] = test system: hyperlocomotion induced by MK-801; test: Suppressive action on hyperlocomotion induced by MK-801; format: in vivo, rat; settings: male SD rats; 1 mg/kg p.o., 60 min before MK-801 (0.3 mg/kg, s.c.); vs vehicle, Student's t-test P<0.05; FIG. 1
From the text: Male SD rats were purchased from Charles River Laboratories Japan, Inc. (Kanagawa, Japan), and used for the experiment at the age of 8 weeks. After arrival at the vivarium, the animals were acclimated for at least 1 week. The animals were reared under a 12:12 hr light/dark cycle in a temperature- and humidity-controlled laboratory and allowed to freely take food and water.
Example 14 was suspended in 0.5% (w/v) aqueous methylcellulose solution and orally administered (p.o.). (+)-MK-801 hydrogen maleate (MK-801, Sigma-Aldrich, St Louis, State of Missouri) was dissolved in saline, and subcutaneously administered (s.c.). All drugs were dosed in a volume of 2 mL/kg body weight for rats.
Hyperlocomotion induced by psychostimulants (e.g., amphetamine, cocaine, methamphetamine, MK-801 and phencyclidine) in rodents is widely used as an animal model of psychosis (Psychopharmacology 1999, vol. 145: 237-250). Using rats, a suppressive action of a compound (Example 14) on the hyperlocomotion induced by MK-801 was tested. Until the start of the test, male SD rats (8-week-old) were acclimated in a locomotor chamber with an infrared sensor set on the upper side (Muromachi Kikai Co., Ltd., Tokyo, Japan). […] Hyperlocomotion was measured every 1 min, and the cumulative count for 120 min from the administration of MK-801 was calculated for each treatment group. […]

Row | Structure (SMILES) | inhibition at 0.1 µM (human PDE10A enzyme) [%] | inhibition at 10 µM (human PDE10A enzyme) [%] | melting point [°C] | suppression of hyperlocomotion induced by MK-801 (cumulative count 0-120 min) [1]
1 | Cc1cn2cccc(-c3ccc(Oc4nc5ccccc5[nH]4)cc3)c2n1 [Example 1, 2-[4-(2-Methylimidazo[1,2-a]pyridin-8-yl)phenoxy]-1H-benzimidazole] | 63 | 98 | – | –
2 | c1ccc2[nH]c(Oc3ccc(-c4cccn5ccnc45)cc3)nc2c1 [Example 2, 2-[4-(Imidazo[1,2-a]pyridin-8-yl)phenoxy]-1H-benzimidazole] | 62 | 98 | – | –
3 | CCn1nc2cccnc2c1-c1ccc(Oc2nc3ccccc3[nH]2)cc1 [Example 3, 3-[4-(1H-benzimidazol-2-yloxy)phenyl]-2-ethyl-2H-pyrazolo[4,3-b]pyridine] | 91 | 102 | – | –
4 | CCn1nc2cccnc2c1-c1ccc(Oc2nc3ccccc3n2C)cc1 [Example 4, 2-Ethyl-3-{4-[(1-methyl-1H-benzimidazol-2-yl)oxy]phenyl}-2H-pyrazolo[4,3-b]pyridine] | 93 | 102 | – | –
5 | c1ccc2[nH]c(Oc3ccc(C4CCCn5ccnc54)cc3)nc2c1 (centres unmarked) [Example 5, 2-[4-(5,6,7,8-Tetrahydroimidazo[1,2-a]pyridin-8-yl)phenoxy]-1H-benzimidazole] | 2 | 51 | – | –
6 | COc1nn(-c2ccc(Oc3nc4ccccc4[nH]3)cc2)c2ncccc12 [Example 6, 1-[4-(1H-benzimidazol-2-yloxy)phenyl]-3-methoxy-1H-pyrazolo[3,4-b]pyridine] | 99 | – | – | –
7 | Cn1c(=O)c2cccnc2n1-c1ccc(Oc2nc3ccccc3[nH]2)cc1 [Example 7, 1-[4-(1H-benzimidazol-2-yloxy)phenyl]-2-methyl-1,2-dihydro-3H-pyrazolo[3,4-b]pyridin-3-one] | 59 | – | – | –
8 | CCc1nn(-c2ccc(Oc3nc4ccccc4n3C)cc2)c2ncccc12 [Example 8, 3-Ethyl-1-{4-[(1-methyl-1H-benzimidazol-2-yl)oxy]phenyl}-1H-pyrazolo[3,4-b]pyridine] | 93 | 104 | – | –
9 | Cn1c(Oc2ccc(-n3c4ncccc4n4ccnc34)cc2)nc2ccccc21 [Example 9, 9-{4-[(1-Methyl-1H-benzimidazol-2-yl)oxy]phenyl}-9H-imidazo[1′,2′:1,2]imidazo[4,5-b]pyridine] | 93 | 96 | 232 to 234 | –
10 | CC(=O)Cn1c(Oc2ccc(-n3c4ncccc4n4ccnc34)cc2)nc2ccccc21 [Example 10, 1-{2-[4-(9H-imidazo[1′,2′:1,2]imidazo[4,5-b]pyridin-9-yl)phenoxy]-1H-benzimidazol-1-yl}propan-2-one] | 104 | 109 | 189 to 192 | –
11 | CC(C)(O)Cn1c(Oc2ccc(-n3c4ncccc4n4ccnc34)cc2)nc2ccccc21 [Example 11, 1-{2-[4-(9H-imidazo[1′,2′:1,2]imidazo[4,5-b]pyridin-9-yl)phenoxy]-1H-benzimidazol-1-yl}-2-methylpropan-2-ol] | 104 | 106 | 208 to 211 | –
12 | CCc1nn(-c2ccc(Oc3nc4cccnc4n3C)cc2)c2ncccc12 [Example 12, 3-Ethyl-1-{4-[(3-methyl-3H-imidazo[4,5-b]pyridin-2-yl)oxy]phenyl}-1H-pyrazolo[3,4-b]pyridine] | 99 | 101 | – | –
13 | Cn1c(Oc2ccc(-n3c4ncccc4n4ccnc34)cc2)nc2cccnc21 [Example 13, 9-{4-[(3-Methyl-3H-imidazo[4,5-b]pyridin-2-yl)oxy]phenyl}-9H-imidazo[1′,2′:1,2]imidazo[4,5-b]pyridine] | 97 | 106 | 228 to 231 | –
14 | COCCn1c(Oc2ccc(-n3c4ncccc4n4ccnc34)cc2)nc2cccnc21 [Example 14, 9-(4-{[3-(2-Methoxyethyl)-3H-imidazo[4,5-b]pyridin-2-yl]oxy}phenyl)-9H-imidazo[1′,2′:1,2]imidazo[4,5-b]pyridine] | 96 | 105 | 178 to 182 | significantly suppressed hyperlocomotion induced by MK-801
15 | Cc1ccnc2c1n1ccnc1n2-c1ccc(Oc2nc3cccnc3n2C)cc1 [Example 15, 5-Methyl-9-{4-[(3-methyl-3H-imidazo[4,5-b]pyridin-2-yl)oxy]phenyl}-9H-imidazo[1′,2′:1,2]imidazo[4,5-b]pyridine] | 97 | 95 | 236 to 239 | –
16 | COCCn1c(Oc2ccc(-n3c4nccc(C)c4n4ccnc34)cc2)nc2cccnc21 [Example 16, 9-(4-{[3-(2-Methoxyethyl)-3H-imidazo[4,5-b]pyridin-2-yl]oxy}phenyl)-5-methyl-9H-imidazo[1′,2′:1,2]imidazo[4,5-b]pyridine] | 98 | 105 | 190 to 192 | –
